Source: patent US20170209544A1, “A PEPTIDE THERAPY TO COUNTERACT INSULIN RESISTANCE AND TYPE 2 DIABETES” (The Regents of the University of California, priority 2014, published 2017)
Where no end group is shown, it is not given here.

How the values were obtained:
[1] = Heart function; settings: in vivo
[2] = tested on: peritoneal macrophages; assay: qPCR of inflammatory genes in cultured peritoneal macrophages; type: cell-based, mice; settings: LPS 100 ng/ml, 4 hr; both WT and Chga-KO macrophages
Description: Peritoneal macrophages were isolated after thioglycollate (3% solution in water) stimulation as described. Isolated macrophages were cultured in DMEM with 10% FBS for 48 hours with daily medium changes. Cells were then serum-starved overnight in DMEM with low FBS (0.5%) and then exposed to saline, PST (100 nM), or LPS (100 ng/ml) for 4 hours. At the end of incubation, the cultures were subjected to RNA extraction.
RNA from tissues was extracted using a kit (RNeasy Plus, Qiagen, Valencia, Calif.). After DNase digestion, 200 ng of RNA was transcribed into cDNA in a 20-μl reaction using a High Capacity cDNA Archive kit and this cDNA was amplified. PCR (25-μl reactions) contained 5 μl of cDNA, 2×SYBR Green PCR Master Mix, and 400 nM of each primer. Differences in the threshold cycle number (ΔCt) between the target gene, the housekeeping gene Gapdh and the ribosomal protein gene 36B4 were used to calculate differences in expression. Primer sequences are provided below.
As shown in FIGS. 18A-18H, PST promotes macrophage inflammation and chemotaxis. Peritoneal macrophages were isolated from WT-NCD and KO-NCD after thioglycollate injection. After 4-hr exposure to saline, LPS (100 ng/ml) or PST (100 nM), RNAs were extracted and cDNAs were prepared for qPCR analyses of Chga (FIG. 18A, n=8), iNos (FIG. 18B, n=8), Tnfα (FIG. 18C, n=8), Mcp-1 (FIG. 18D, n=8), IL-6 (FIG. 18E, n=8), IL-12p40 (FIG. 18F, n=8) and iNos genes (FIG. 18G, n=8). (FIG. 18H) Effects of PST on chemotaxis of activated macrophages from NCD-fed C57BL/6J mice (n=5). “*” Denotes comparison between the indicated groups. “*”: P<0.05, “**”: p<0.01, “***”: p<0.001.

Substance	effects on heart function [1]	expression of iNos [2]
KGEQEHSQQKEEEEEMAVVPQGLFRG-NH2 [PSTv1]	no adverse effects on heart function	
lipopolysaccharide [LPS]		~100 fold
